Data as given in US11052092B2, “N-{[2-(piperidin-1-yl)phenyl](phenyl)methyl}-2-(3-oxo-3,4-dihydro-2H-1,4-benzoxazin-7-yl)acetamide derivatives and related compounds as ROR-gamma modulators for treating autoimmune diseases” (Genfit, priority 2017, dated 2021).

Assays:
human RORγt = biological target: T1, human RORγt (Homo sapiens, UniProt P51449); test: RORE Luciferase/RORγt transactivation assay; format: cell-based; conditions: COS-7 cells transfected with human IL-17 promoter luciferase reporter and RORγt plasmid; 20 h with compound; read-out: IC50, RORγt activity inhibition
T1 construct: the full-length cDNA of human RORγt; expressed in transfected cells; host or cells: COS-7 (monkey kidney)
T1 sequence (P51449 1-497 isoform P51449-2): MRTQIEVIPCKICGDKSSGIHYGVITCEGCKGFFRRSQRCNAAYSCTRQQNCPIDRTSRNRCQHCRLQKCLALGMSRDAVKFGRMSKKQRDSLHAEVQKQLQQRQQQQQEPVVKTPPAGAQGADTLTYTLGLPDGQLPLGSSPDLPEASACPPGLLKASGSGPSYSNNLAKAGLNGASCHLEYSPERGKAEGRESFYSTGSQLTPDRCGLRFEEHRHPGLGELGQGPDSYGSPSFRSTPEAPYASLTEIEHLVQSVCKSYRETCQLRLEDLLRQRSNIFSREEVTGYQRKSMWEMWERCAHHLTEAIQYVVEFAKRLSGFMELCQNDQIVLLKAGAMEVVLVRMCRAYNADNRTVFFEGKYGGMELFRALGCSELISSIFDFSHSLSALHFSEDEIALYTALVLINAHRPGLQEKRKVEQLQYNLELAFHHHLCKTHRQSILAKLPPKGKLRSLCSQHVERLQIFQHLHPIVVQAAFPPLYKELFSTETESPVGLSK
How it was run: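 COS-7 cells were transiently co-transfected with a human IL-17 promoter (RORE/CNS)–luciferase reporter and a RORγt expression plasmid, then seeded at 10000 cells/well in serum-free, phenol red-free DMEM. Compounds were added at 0.3% DMSO final. Luciferase was read with Steady-Glo, and IC50 and Emax were derived.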

[1] = tested on: Murine EL-4 lymphoma cell line overexpressing human RORγt; test: IL-17 secretion from EL4 murine lymphoma; format: cell-based; conditions: Mus musculus; human RORγt-transfected EL4 cells, PMA (10 ng/mL) and ionomycin (1 μM), 24 h; read-out: IC50, IL-17 secretion inhibition
Experimental: Murine EL-4 lymphoma cell line overexpressing human RORγt was used in this functional assay to assess compound ability to inhibit IL-17 cytokine secretion.
EL-4 cells are maintained in a standard culture medium RPMI supplemented with 10% fetal calf serum, 1% sodium pyruvate, 1% essential amino acids and 1% antibiotics at 37° C. in a humidified atmosphere of 5% CO02 and 95% air. Culture medium was changed every 2 days. EL4 cells were transfected with a plasmid encoding hRORγt (sequence identical to published sequence NM 001001523). […] Briefly, 1 μg of DNA/1 million cells was served to transfect EL-4 cells. Cell/DNA suspension was transferred into certified cuvette and the electroporation of RORγt plasmid was carried out using appropriate Nucleofector® program.
Cells were seeded in 96 well plates at a density of 150000 cells/I well then treated with compounds of this invention at indicated concentrations and incubated for 24 hours at 37° C. in a humidified atmosphere of 5% C02 and 95% air. EL-4 cells were pretreated with test compounds (RORγ modulators) and stimulated with PMA (10 ng/mL) and ionomycin (1 μM final concentration) in the presence of test compound concentrations for additional 24 h at 37° C. in a humidified atmosphere of 5% C02 and 95% air. Subsequently, supernatants were collected (after centrifugation at 300 g for 10 minutes) to determine the concentrations of IL-17 by HTRF (CisBio, France) or ELISA (R&D Systems Europe) according to the manufacturer's protocols.

Structure (SMILES)	IC50 (human RORγt)	IC50 [1]	melting point
Cc1ccc(C(NC(=O)Cc2ccc3c(c2)C(C)(O)C(=O)N3)c2ccc(C)o2)c(N2CCCCC2)c1 (stereo not drawn) [Cpd. 47, 2-(3-hydroxy-3-methyl-2-oxo-2,3-dihydro-1H-indol-5-yl)-N-{[4-methyl-2-(piperidin-1-yl)phenyl](5-methylfuran-2-yl)methyl}acetamide]	10 to 100 nM	100 to 1000 nM	112 °C
Cc1ccc(C(NC(=O)Cc2ccc3[nH]c(C)nc3c2)c2ccccc2)c(N2CCCCC2)c1 (stereo not drawn) [Cpd. 75, 2-(2-methyl-1H-1,3-benzodiazol-5-yl)-N-{[4-methyl-2-(piperidin-1-yl)phenyl](phenyl)methyl}acetamide]	10 to 100 nM	100 to 1000 nM	137 °C
Cc1ccc(C(NC(=O)Cc2ccc3c(c2)CC(=O)N3)c2ccc(Cl)o2)c(N2CCCCC2)c1 (stereo not drawn) [Cpd. 83, N-[(5-chlorofuran-2-yl)[4-methyl-2-(piperidin-1-yl)phenyl]methyl]-2-(2-oxo-2,3-dihydro-1H-indol-5-yl)acetamide]	10 to 100 nM	100 to 1000 nM	–
Cc1ccc(C(NC(=O)Cc2ccc3c(CO)c[nH]c3c2)c2ccc(C)o2)c(N2CCCCC2)c1 (stereo not drawn) [Cpd. 88, 2-[3-(hydroxymethyl)-1H-indol-6-yl]-N-{[4-methyl-2-(piperidin-1-yl)phenyl](5-methylfuran-2-yl)methyl}acetamide]	10 to 100 nM	< 100 nM	92 °C
Cc1ccc(C(NC(=O)C2(c3ccc4[nH]cc(CO)c4c3)CC2)c2ccc(C)o2)c(N2CCCCC2)c1 (stereo not drawn) [Cpd. 89, 1-[3-(hydroxymethyl)-1H-indol-5-yl]-N-{[4-methyl-2-(piperidin-1-yl)phenyl](5-methylfuran-2-yl)methyl}cyclopropane-1-carboxamide]	< 10 nM	< 100 nM	112 °C
Cc1ccc(C(NC(=O)Cc2ccc3[nH]c(N4CCOCC4)nc3c2)c2ccc(C)o2)c(N2CCCCC2)c1 (stereo not drawn) [Cpd. 93, N-{[4-methyl-2-(piperidin-1-yl)phenyl](5-methylfuran-2-yl)methyl}-2-[2-(morpholin-4-yl)-1H-1,3-benzodiazol-5-yl]acetamide]	10 to 100 nM	< 100 nM	–
Cc1ccc(C(NC(=O)Cc2ccc3[nH]cc(CN4CCOCC4)c3c2)c2ccc(C)o2)c(N2CCCCC2)c1 (stereo not drawn) [Cpd. 94, N-{[4-methyl-2-(piperidin-1-yl)phenyl](5-methylfuran-2-yl)methyl}-2-[3-(morpholin-4-ylmethyl)-1H-indol-5-yl]acetamide]	10 to 100 nM	< 100 nM	100 °C
Cc1ccc(C(NC(=O)Cc2ccc3c(ccn3CCC(=O)O)c2)c2ccc(C)o2)c(N2CCCCC2)c1 (stereo not drawn) [Cpd. 97, 3-{5-[({[4-methyl-2-(piperidin-1-yl)phenyl](5-methylfuran-2-yl)methyl}carbamoyl)methyl]-1H-indol-1-yl}propanoic acid]	10 to 100 nM	100 to 1000 nM	95 °C
Cc1ccc(C(NC(=O)Cc2ccc3[nH]cc(C(=O)CS(C)(=O)=O)c3c2)c2ccc(C)o2)c(N2CCCCC2)c1 (stereo not drawn) [Cpd. 103, 2-[3-(2-methanesulfonylacetyl)-1H-indol-5-yl]-N-{[4-methyl-2-(piperidin-1-yl)phenyl](5-methylfuran-2-yl)methyl}acetamide]	10 to 100 nM	< 100 nM	–
Cc1ccc(C(NC(=O)Cc2ccc3[nH]cc(C(=O)CS(C)(=O)=O)c3c2)c2ccc(C)o2)c(Br)c1 (stereo not drawn) [Cpd. 104, N-[(2-bromo-4-methylphenyl)(5-methylfuran-2-yl)methyl]-2-[3-(2-methanesulfonylacetyl)-1H-indol-5-yl]acetamide]	100 to 1000 nM	1000 to 10000 nM	–
Cc1ccc(C(NC(=O)Cc2ccc3c(ccn3S(C)(=O)=O)c2)c2ccc(C)o2)c(N2CCCCC2)c1 (stereo not drawn) [Cpd. 106, 2-(1-methanesulfonyl-1H-indol-5-yl)-N-{[4-methyl-2-(piperidin-1-yl)phenyl](5-methylfuran-2-yl)methyl}acetamide]	10 to 100 nM	100 to 1000 nM	–
Cc1ccc(C(NC(=O)Cc2ccc3[nH]cc(C(=O)CS(C)(=O)=O)c3c2)c2ccc(C)o2)c(C)c1 (stereo not drawn) [Cpd. 107, N-[(2,4-dimethylphenyl)(5-methylfuran-2-yl)methyl]-2-[3-(2-methanesulfonylacetyl)-1H-indol-5-yl]acetamide]	100 to 1000 nM	1000 to 10000 nM	–
Cc1ccc(C(NC(=O)C2(c3ccc4[nH]ccc4c3)CC2)c2ccc(C)o2)c(C)c1 (stereo not drawn) [Cpd. 108, N-[(2,4-dimethylphenyl)(5-methylfuran-2-yl)methyl]-1-(1H-indol-5-yl)cyclopropane-1-carboxamide]	10 to 100 nM	< 100 nM	–
COc1ccc(C(NC(=O)Cc2ccc3c(ccn3CCC(=O)O)c2)c2ccc(C)o2)c(N2CCCCCC2)c1 (stereo not drawn) [Cpd. 111, 3-{5-[({[2-(azepan-1-yl)-4-methoxyphenyl](5-methylfuran-2-yl)methyl}carbamoyl)methyl]-1H-indol-1-yl}propanoic acid]	10 to 100 nM	100 to 1000 nM	80 °C
Cc1ccc(C(NC(=O)Cc2ccc3[nH]cc(CCS(C)(=O)=O)c3c2)c2ccc(Cl)o2)c(N2CCCC2)c1 (stereo not drawn) [Cpd. 112, N-[(5-chlorofuran-2-yl)[4-methyl-2-(pyrrolidin-1-yl)phenyl]methyl]-2-[3-(2-methanesulfonylethyl)-1H-indol-5-yl]acetamide]	10 to 100 nM	100 to 1000 nM	–
Cc1ccc(C(NC(=O)Cc2ccc3ccn(C(=O)N4CCOCC4)c3c2)c2ccc(C)o2)c(N2CCCCC2)c1 (stereo not drawn) [Cpd. 114, N-{[4-methyl-2-(piperidin-1-yl)phenyl](5-methylfuran-2-yl)methyl}-2-[1-(morpholine-4-carbonyl)-1H-indol-6-yl]acetamide]	10 to 100 nM	100 to 1000 nM	–
CNS(=O)(=O)c1c[nH]c2ccc(CC(=O)NC(c3ccc(C)o3)c3ccc(C)cc3N3CCCCC3)cc12 (stereo not drawn) [Cpd. 115, N-{[4-methyl-2-(piperidin-1-yl)phenyl](5-methylfuran-2-yl)methyl}-2-[3-(methylsulfamoyl)-1H-indol-5-yl]acetamide]	10 to 100 nM	100 to 1000 nM	–
Cc1ccc(C(NC(=O)Cc2ccc3c(ccn3C(=O)N3CCOCC3)c2)c2ccc(C)o2)c(N2CCCCC2)c1 (stereo not drawn) [Cpd. 116, N-{[4-methyl-2-(piperidin-1-yl)phenyl](5-methylfuran-2-yl)methyl}-2-[1-(morpholine-4-carbonyl)-1H-indol-5-yl]acetamide]	10 to 100 nM	< 100 nM	88 °C
Cc1ccc(C(NC(=O)Cc2ccc3c(C(=O)CS(C)(=O)=O)c[nH]c3c2)c2ccc(C)o2)c(N2CCCCC2)c1 (stereo not drawn) [Cpd. 117, 2-[3-(2-methanesulfonylacetyl)-1H-indol-6-yl]-N-{[4-methyl-2-(piperidin-1-yl)phenyl](5-methylfuran-2-yl)methyl}acetamide]	10 to 100 nM	100 to 1000 nM	85 °C
Cc1ccc(C(NC(=O)C2(c3ccc4[nH]cc(CNS(C)(=O)=O)c4c3)CC2)c2ccc(C)o2)c(N2CCCCC2)c1 (stereo not drawn) [Cpd. 119, 1-[3-(methanesulfonamidomethyl)-1H-indol-5-yl]-N-{[4-methyl-2-(piperidin-1-yl)phenyl](5-methylfuran-2-yl)methyl}cyclopropane-1-carboxamide]	10 to 100 nM	< 100 nM	109 °C
Cc1ccc(C(NC(=O)Cc2ccc3[nH]cc(C(=O)N4CCOCC4)c3c2)c2ccc(C)o2)c(N2CCCCC2)c1 (stereo not drawn) [Cpd. 120, N-{[4-methyl-2-(piperidin-1-yl)phenyl](5-methylfuran-2-yl)methyl}-2-[3-(morpholine-4-carbonyl)-1H-indol-5-yl]acetamide]	10 to 100 nM	< 100 nM	–
CC(=O)N1CCc2cc(C3(C(=O)NC(c4ccc(C)o4)c4ccc(C)cc4C)CC3)ccc21 (stereo not drawn) [Cpd. 126, 1-(1-acetyl-2,3-dihydro-1H-indol-5-yl)-N-[(2,4-dimethylphenyl)(5-methylfuran-2-yl)methyl]cyclopropane-1-carboxamide]	10 to 100 nM	100 to 1000 nM	–
